Earlier results as cited in publication PMC8617627, “Novel DYRK1A Inhibitor Rescues Learning and Memory Deficits in a Mouse Model of Down Syndrome” (Pharmaceuticals, 2021).
Read-outs that look alike come from different tables or passages of the source.

System: 139-protein kinase panel
Details: no reference given, cited from earlier work

COc1ccc2c(c1)[nH]c1c(C)nccc12 [harmine]
GINI-index (comparison value for harmine): 0.506

CN[C@@H]1C[C@H]2O[C@@](C)([C@@H]1OC)n1c3ccccc3c3c4c(c5c6ccccc6n2c5c31)C(=O)NC4 [staurosporine]
GINI-index (comparison value for staurosporine, with 10 uM ATP): 0.093
